“And” between values parts separate entries of the source, which are not always exact repeats. Equal values may be shown once. Inconclusive results and toxic doses are left out.

The values below come from PubChem BioAssay AID192 (DTP/NCI, 2004).

In the assay the test system is BDF1 mice, B16 melanoma ip, median survival T/C. In words: NCI In Vivo Anticancer Drug Screen. Data for tumor model B16 Melanoma (intraperitoneal) in B6D2F1 (BDF1) mice. As to conditions: endpoint: median survival time, higher = longer survival. The procedure, abridged: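 Tumor-bearing mice received test compound or vehicle. Survival or tumor size was then measured in both groups. The treated-group figure was divided by the control-group figure.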

Setting [1] is: dose: 2.5 mg/kg/injection, schedule: Q01DX009 (ip), vehicle: saline with Tween-80.
The mark [2] stands for this setting: dose: 12.5 mg/kg/injection, schedule: Q01DX009 (ip), vehicle: saline.
[3] abbreviates: dose: 100.0 mg/kg/injection, schedule: Q01DX009 (ip), vehicle: saline with Tween-80.
Where [4] appears, read: dose: 200.0 mg/kg/injection, schedule: Q01DX009 (ip), vehicle: saline with Tween-80.
The mark [5] stands for this setting: dose: 400.0 mg/kg/injection, schedule: Q01DX009 (ip), vehicle: saline with Tween-80.
The mark [6] stands for this setting: dose: 25.0 mg/kg/injection, schedule: Q01DX009 (ip), vehicle: saline with Tween-80.
Setting [7] is: dose: 50.0 mg/kg/injection, schedule: Q01DX009 (ip), vehicle: saline with Tween-80.
Where [8] appears, read: dose: 100.0 mg/kg/injection, schedule: Q01DX009 (ip), vehicle: Klucel (hydroxypropylcellulose) (HPC).
The mark [9] stands for this setting: dose: 200.0 mg/kg/injection, schedule: Q01DX009 (ip), vehicle: Klucel (hydroxypropylcellulose) (HPC).
The mark [10] stands for this setting: dose: 400.0 mg/kg/injection, schedule: Q01DX009 (ip), vehicle: Klucel (hydroxypropylcellulose) (HPC).
Where [11] appears, read: dose: 12.5 mg/kg/injection, schedule: Q01DX009 (ip), vehicle: saline with Tween-80.
[12] abbreviates: dose: 50.0 mg/kg/injection, schedule: Q01DX009 (ip), vehicle: saline.
Setting [13] is: dose: 100.0 mg/kg/injection, schedule: Q01DX009 (ip), vehicle: saline.
[14] abbreviates: dose: 37.5 mg/kg/injection, schedule: Q01DX009 (ip), vehicle: saline.
[15] abbreviates: dose: 75.0 mg/kg/injection, schedule: Q01DX009 (ip), vehicle: saline.
Where [16] appears, read: dose: 100.0 mg/kg/injection, schedule: Q04DX003 (ip), vehicle: Klucel (hydroxypropylcellulose) (HPC).
The mark [17] stands for this setting: dose: 6.25 mg/kg/injection, schedule: Q01DX009 (ip), vehicle: saline.
[18] abbreviates: dose: 25.0 mg/kg/injection, schedule: Q01DX009 (ip), vehicle: saline.
Where [19] appears, read: dose: 18.75 mg/kg/injection, schedule: Q01DX009 (ip), vehicle: saline.

For `O=C1CCNC(=O)N1OS(=O)(=O)c1ccccc1`, the T/C runs as follows: (dose: 6.25 mg/kg/injection, schedule: Q01DX009 (ip), vehicle: Klucel (hydroxypropylcellulose) (HPC)) 106 % of control; (dose: 12.5 mg/kg/injection, schedule: Q01DX009 (ip), vehicle: Klucel (hydroxypropylcellulose) (HPC)) 100 % of control; (dose: 25.0 mg/kg/injection, schedule: Q01DX009 (ip), vehicle: Klucel (hydroxypropylcellulose) (HPC)) 98 % of control.

With `COc1ccc2c(Nc3ccc(NS(C)(=O)=O)cc3)c3ccccc3nc2c1`, the T/C (dose: 1.87 mg/kg/injection, schedule: Q01DX009 (ip), vehicle: saline with Tween-80) is 163 % of control; the T/C under setting [1] was 150 % of control; the T/C (dose: 3.75 mg/kg/injection, schedule: Q01DX009 (ip), vehicle: saline with Tween-80) was 163 % of control; the T/C (dose: 5.0 mg/kg/injection, schedule: Q01DX009 (ip), vehicle: saline with Tween-80) is 161 % of control; the T/C (dose: 5.3 mg/kg/injection, schedule: Q01DX009 (ip), vehicle: saline with Tween-80) is 188 % of control; the T/C (dose: 7.5 mg/kg/injection, schedule: Q01DX009 (ip), vehicle: saline with Tween-80) was 193 % of control. Further, the T/C (dose: 8.0 mg/kg/injection, schedule: Q01DX009 (ip), vehicle: saline with Tween-80) is 188 % of control; the T/C (dose: 12.0 mg/kg/injection, schedule: Q01DX009 (ip), vehicle: saline with Tween-80) is 188 % of control; the T/C under setting [2] is 172 % of control; the T/C (dose: 50.0 mg/kg/injection, schedule: Q01DX001 (ip), vehicle: saline sonified) was 175 % of control; the T/C (dose: 100.0 mg/kg/injection, schedule: Q01DX001 (ip), vehicle: saline sonified) is 194 % of control.

With `Cc1cc(Cl)ccc1NS(=O)(=O)c1cccc([N+](=O)[O-])c1`, the T/C reads like this: under setting [3], 116 % of control; under setting [4], 121 % of control; under setting [5], 107 % of control.

In the case of `Nc1ccc(N=Nc2ccccc2)c(N)c1`, the T/C was 106 % of control under setting [6]; 93 % of control and 101 % of control under setting [7]; 101 % of control under setting [8]; 95 % of control and 101 % of control under setting [3]; 99 % of control under setting [9]; 87 % of control and 90 % of control under setting [4].

As for `O=C(/C=C/c1ccc2c(c1)OCO2)c1ccc2c(c1)OCO2`, the T/C under setting [8] is 100 % of control, the T/C under setting [9] is 110 % of control and the T/C under setting [10] is 117 % of control.

`O=C1N[C@@H]2C(=C[C@H](O)[C@@H](O)[C@H]2O)c2cc3c(c(O)c21)OCO3`: the T/C under setting [1] is 111 % of control.

Take `CCCCOCN(COCCCC)C(C)Cc1ccccc1` (stereo not given): the T/C was 95 % of control and 100 % of control under setting [11]; 98 % of control and 104 % of control under setting [6]; 99 % of control and 105 % of control under setting [7]; 106 % of control and 110 % of control under setting [3]; 90 % of control and 100 % of control under setting [4].

In the case of `O=[N+]([O-])C(CO)(CO)CO`, the T/C runs as follows: (dose: 100.0 mg/kg/injection, schedule: Q04DX003 (ip), vehicle: saline) 110 % of control; (dose: 200.0 mg/kg/injection, schedule: Q04DX003 (ip), vehicle: saline) 110 % of control; (dose: 400.0 mg/kg/injection, schedule: Q04DX003 (ip), vehicle: saline) 96 % of control.

For the compound `Cc1cccc(CN)n1`, the T/C reads like this: under setting [12], 105 % of control; under setting [13], 118 % of control.

On to `C/C=C(\C)C(=O)OC1CC[N+]2([O-])CCC(COC(=O)/C(=C/C)CO)C12` (stereo not given), for which the T/C runs as follows: (dose: 18.8 mg/kg/injection, schedule: Q01DX009 (ip), vehicle: saline) 102 % of control; under setting [14], 109 % of control; under setting [15], 107 % of control; (dose: 150.0 mg/kg/injection, schedule: Q01DX009 (ip), vehicle: saline) 107 % of control.

Regarding `C#CC(C)OCC1CNC(=S)O1` (stereo not given), the T/C by setting is: under setting [6], 100 % of control; under setting [7], 89 % of control; under setting [3], 97 % of control; under setting [5], 91 % of control.

Regarding `O=C(OCOC(=O)c1ccccc1)c1ccccc1`, the T/C is 120 % of control under setting [8], 106 % of control under setting [9] and 114 % of control under setting [10].

In the case of `CCCCCCCCCCCCCCCC#N`, the T/C reads like this: (dose: 25.0 mg/kg/injection, schedule: Q04DX003 (ip), vehicle: Klucel (hydroxypropylcellulose) (HPC)) 99 % of control; (dose: 50.0 mg/kg/injection, schedule: Q04DX003 (ip), vehicle: Klucel (hydroxypropylcellulose) (HPC)) 96 % of control; under setting [16], 92 % of control.

With `CC(=O)N(NC(C)C)C(C)C`, the T/C under setting [17] is 111 % of control, the T/C under setting [2] was 103 % of control, the T/C under setting [18] is 99 % of control and the T/C under setting [12] is 102 % of control.

As to `Nc1ccc(-c2c(N)ncc3ccccc23)cc1`, the T/C was 101 % of control under setting [11], 104 % of control under setting [6] and 103 % of control under setting [7].

In the case of `CCN(CC)C1CC(O[C@H]2C[C@](O)(C(C)=O)Cc3c(O)c4c(c(O)c32)C(=O)c2c(OC)cccc2C4=O)OC(C)C1O` (stereo not given in full), the T/C (dose: 0.25 mg/kg/injection, schedule: Q01DX009 (ip), vehicle: water) is 113 % of control and the T/C (dose: 0.5 mg/kg/injection, schedule: Q01DX009 (ip), vehicle: water) was 119 % of control.

`O=Cc1ccc(/C=C2\C=Cc3ccccc32)cc1`: the T/C under setting [3] is 97 % of control.

Take `CN(C)CCCN1c2ccccc2CCc2ccccc21`: the T/C reads like this: (dose: 3.12 mg/kg/injection, schedule: Q01DX009 (ip), vehicle: saline) 95 % of control; under setting [17], 102 % of control; under setting [2], 104 % of control; under setting [18], 93 % of control; under setting [12], 104 % of control.

With `C/C(=C\c1ccccc1)[N+](=O)[O-]`, the T/C runs as follows: under setting [6], 111 % of control; (dose: 25.0 mg/kg/injection, schedule: Q04DX003 (ip), vehicle: saline with Tween-80) 110 % of control; under setting [7], 105 % of control; (dose: 50.0 mg/kg/injection, schedule: Q04DX003 (ip), vehicle: saline with Tween-80) 110 % of control.

Consider `CCN(CCCCO)CCc1c[nH]c2ccc(OC)cc12`, for which the T/C (dose: 9.3 mg/kg/injection, schedule: Q01DX009 (ip), vehicle: saline) was 105 % of control; the T/C under setting [19] is 90 % of control; the T/C under setting [14] is 97 % of control; the T/C under setting [15] is 110 % of control.

Regarding `O=C1C(N2CCOCC2)=C(N2CC2)C(=O)C(N2CCOCC2)=C1N1CC1`, the T/C runs as follows: (dose: 0.75 mg/kg/injection, schedule: Q01DX009 (ip), vehicle: saline) 118 % of control; (dose: 1.5 mg/kg/injection, schedule: Q01DX009 (ip), vehicle: saline) 124 % of control; (dose: 3.0 mg/kg/injection, schedule: Q01DX009 (ip), vehicle: saline) 120 % of control; (dose: 6.0 mg/kg/injection, schedule: Q01DX009 (ip), vehicle: saline) 106 % of control.

For the compound `O=C(O)c1ccc(SSc2ccc(C(=O)O)cn2)nc1`, the T/C is, setting by setting: under setting [8], 88 % of control; under setting [16], 93 % of control; under setting [9], 100 % of control; (dose: 200.0 mg/kg/injection, schedule: Q04DX003 (ip), vehicle: Klucel (hydroxypropylcellulose) (HPC)) 97 % of control; under setting [10], 88 % of control; (dose: 400.0 mg/kg/injection, schedule: Q04DX003 (ip), vehicle: Klucel (hydroxypropylcellulose) (HPC)) 90 % of control.

With `CN(C)CCOC(=O)COc1ccc(Cl)cc1`, the T/C runs as follows: under setting [18], 104 % of control; under setting [12], 104 % of control; under setting [13], 109 % of control; (dose: 200.0 mg/kg/injection, schedule: Q01DX009 (ip), vehicle: saline) 102 % of control; (dose: 400.0 mg/kg/injection, schedule: Q01DX009 (ip), vehicle: saline) 97 % of control.

As for `OCCN1CCN(CCCN2c3ccccc3Sc3cccnc32)CC1`, the T/C (dose: 9.37 mg/kg/injection, schedule: Q01DX009 (ip), vehicle: saline) was 89 % of control; the T/C under setting [2] was 93 % of control; the T/C under setting [19] is 107 % of control; the T/C under setting [18] is 113 % of control; the T/C under setting [14] is 105 % of control; the T/C under setting [15] was 102 % of control.
